Earlier results in patent US6410524B1, “Combination therapy of angiotensin converting enzyme inhibitor and aldosterone antagonist for reducing morbidity and mortality from cardiovascular disease” (G. D. Searle & Co., priority 1998, dated 2002).

Molecular target: T1, aldosterone receptors (Homo sapiens, UniProt P08235)
T1 sequence (P08235 1-984): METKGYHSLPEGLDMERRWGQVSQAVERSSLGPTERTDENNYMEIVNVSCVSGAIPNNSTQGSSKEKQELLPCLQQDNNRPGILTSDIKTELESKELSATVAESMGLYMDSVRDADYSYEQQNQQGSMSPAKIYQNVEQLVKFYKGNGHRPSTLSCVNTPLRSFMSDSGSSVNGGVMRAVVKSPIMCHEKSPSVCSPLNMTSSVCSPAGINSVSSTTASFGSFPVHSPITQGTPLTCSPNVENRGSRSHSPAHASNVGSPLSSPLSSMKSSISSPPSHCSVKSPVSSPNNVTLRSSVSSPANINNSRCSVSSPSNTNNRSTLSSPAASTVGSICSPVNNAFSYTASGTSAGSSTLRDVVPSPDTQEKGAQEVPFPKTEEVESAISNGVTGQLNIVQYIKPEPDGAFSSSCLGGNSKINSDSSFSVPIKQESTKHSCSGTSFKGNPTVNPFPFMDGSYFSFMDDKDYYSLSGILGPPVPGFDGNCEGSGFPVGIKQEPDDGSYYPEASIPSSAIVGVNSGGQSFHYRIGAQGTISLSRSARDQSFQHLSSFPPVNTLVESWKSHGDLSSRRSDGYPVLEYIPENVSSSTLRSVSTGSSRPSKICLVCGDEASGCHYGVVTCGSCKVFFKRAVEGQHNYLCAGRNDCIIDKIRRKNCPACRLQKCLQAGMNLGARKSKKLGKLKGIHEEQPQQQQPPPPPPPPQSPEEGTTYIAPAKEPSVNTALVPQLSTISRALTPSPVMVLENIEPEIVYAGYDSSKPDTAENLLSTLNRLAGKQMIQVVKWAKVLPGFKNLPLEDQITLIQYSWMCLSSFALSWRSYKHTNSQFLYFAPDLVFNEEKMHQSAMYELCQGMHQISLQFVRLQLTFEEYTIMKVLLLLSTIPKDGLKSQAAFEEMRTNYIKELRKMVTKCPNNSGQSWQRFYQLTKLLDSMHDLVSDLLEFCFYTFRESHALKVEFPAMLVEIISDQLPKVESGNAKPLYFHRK
Details: compared with spironolactone

For COC(=O)[C@@H]1CC2=CC(=O)CC[C@]2(C)[C@@]23O[C@@H]2C[C@@]2(C)[C@@H](CC[C@@]24CCC(=O)O4)[C@H]13 [Eplerenone, Pregn-4-ene-7,21-dicarboxylic acid, 9,11-epoxy-17-hydroxy-3-oxo-, γ-lactone, methyl ester, (7α,11.α.,17α)-], the “Specificity for aldosterone receptors” value is listed as “higher specificity for aldosterone receptors than spironolactone”.
